Test results published in PMC11109252, “Synthetic aporphine alkaloids are potential therapeutics for Leigh syndrome” (Scientific Reports, 2024).
“Also recorded” adds a separate entry of the source.

Experiments:
[1] = system: LS patient-derived skin fibroblasts; assay: Mitochondrial ATP production capacity (extracellular flux analyzer, OCR); type: cell-based, human; conditions: 100 nM compound
Excerpt: The extracellular flux analyzer Seahorse XFe96 (Agilent Technologies, Santa Clara, CA, USA) was used to evaluate the mitochondrial function. The extracellular flux analyzer measures the oxygen consumption rate (OCR) in the mitochondria during ATP synthesis and can also evaluate the intracellular mitochondrial function. The endpoints were the basal OCR, ATP-linked OCR, maximal OCR, and spare capacity, which are key indicators of the mitochondrial function in assays using living cells. Each indicator was calculated by continuously adding ATP synthase inhibitors (oligomycin, rotenone and antimycin A) and deconjugating agents (carbonyl cyanide-p-trifluoromethoxyphenylhydrazone [FCCP]) during the measurement (Fig. 6). […] The OCR was measured over time by adding oligomycin (2 μM concentration) 20 min after drug addition, FCCP (2 μM concentration) 50 min later, and rotenone and antimycin A (0.5 μM concentration) 80 min later.

GDF-15 [2] = assay: GDF-15 levels in the cell supernatant (ELISA); type: cell-based, human; conditions: 24 h after co-administration with RSL3, compared to RSL3-only
Experimental: GDF-15 is a biomarker that is elevated in the blood of patients with mitochondrial diseases and is used for the diagnosis of mitochondrial diseases and determination of therapeutic efficacy[26],[36]. […] As previously reported, GDF-15 levels were measured by an enzyme-linked immuno sorbent assay (ELISA) using the Quantikin Human GDF-15 ELISA Kit (R&D Systems, Minneapolis, MN, USA). Samples were obtained from anti-RSL3-induced cell death assays with candidate compounds (D31, D55, and D40), and cell supernatants 24 h after reagent addition were used for the assay. Measured values were calculated with reference to internal standards and compared to GDF-15 values.

[3] = system: LS patient-derived skin fibroblasts; assay: Anti-RSL3-induced cell death activity assay; type: cell-based; conditions: Homo sapiens, Skin fibroblast, 24 h, read-out: Anti-RSL3-induced cell death effect EC50
Experimental: RSL3 is a glutathione peroxidase 4 (GPx4) inhibitor that specifically induces ferroptosis. Ferroptosis is an iron-dependent non-apoptotic type of cell death caused by lipid peroxidation.
After 24 h of incubation, the reagents were added to the RSL3 (−) derivative (−) and RSL3 ( +) derivative ( +) groups. […] The final concentration of RSL3 was 50–200 nM that would cause approximately 80–90% cell death after 24 h of incubation. The percentage of viable cells was measured 24 h after addition of each reagent.

[4] = cited from earlier work
GDF-15 [5] = conditions: cited from earlier work
[6] = system: LS patient-derived skin fibroblasts; conditions: cited from earlier work
[7] = system: LS patient-derived skin fibroblasts; assay: Anti-BSO-induced cell death activity assay; conditions: for EC50: viable cells 48 h after addition

| SMILES | Enhancement of mitochondrial ATP production [1] | GDF-15 elevation in cell supernatant (GDF-15 [2]) | EC50 [3] | Concentrations in the brain versus plasma [4] | GDF-15 elevation in culture supernatant (GDF-15 [5]) | ATP production in LS patient-derived skin fibroblasts [6] | EC50 ([7]; Homo sapiens, Skin fibroblast, 48 h, read-out: Anti-BSO-induced cell death effect EC50, co-added with BSO at a concentration giving 10%-20% cell viability) | EC50 ([7]; read-out: Anti-BSO-induced cell death effect EC50, co-added with BSO at a concentration giving 10%-20% cell viability) | Anti-BSO cell death effect retained (same as apomorphine) ([7]; comparison of D29, D30, D31) |
| --- | --- | --- | --- | --- | --- | --- | --- | --- | --- |
| CCOc1ccc2c(c1O)-c1cccc3c1[C@@H](C2)N(C)CC3 [D55, (9R)-4-ethoxy-10-methyl-10-azatetracyclo[7.7.1.0²,⁷.0¹³,¹⁷]heptadeca-1(17),2,4,6,13,15-hexaen-3-ol] | showed any ability to enhance mitochondrial ATP production; also recorded: No significant enhancement | suppressed GDF-15 elevation; also recorded: significant decrease | 21 nM | – | – | – | – | – | – |
| CN1CCc2cccc3c2[C@H]1Cc1ccc(O)c(O)c1-3 [Apo, (9R)-10-methyl-10-azatetracyclo[7.7.1.0²,⁷.0¹³,¹⁷]heptadeca-1(17),2,4,6,13,15-hexaene-3,4-diol] | No significant enhancement | significant decrease | – | up to three-fold higher | inhibits GDF-15 elevation | increase ATP production | – | – | – |
| CCCOc1ccc2c(c1O)-c1cccc3c1[C@@H](C2)N(C)CC3 [D40, (9R)-10-methyl-4-propoxy-10-azatetracyclo[7.7.1.0²,⁷.0¹³,¹⁷]heptadeca-1(17),2,4,6,13,15-hexaen-3-ol] | showed any ability to enhance mitochondrial ATP production; also recorded: No significant enhancement | suppressed GDF-15 elevation; also recorded: significant decrease | 231 nM | – | – | – | < 100 nM | 55 nM | – |
| COc1ccc2c(c1O)-c1cccc3c1[C@@H](C2)N(C)CC3 [D31, (9R)-4-methoxy-10-methyl-10-azatetracyclo[7.7.1.0²,⁷.0¹³,¹⁷]heptadeca-1(17),2,4,6,13,15-hexaen-3-ol] | showed any ability to enhance mitochondrial ATP production; also recorded: No significant enhancement | suppressed GDF-15 elevation; also recorded: significant decrease | 27 nM | – | – | – | – | – | retained its anti-BSO cell death effect; also recorded: the only compound with the same anti-BSO-induced cell death activity as apomorphine |
